Test results: patent US6337417B1, “N-phenyltetrahydrophthalamic acid derivatives, methods of producing same, and herbicides containing same as effective components” (Central Glass Co., Ltd., priority 1994, dated 2002)

Experiments:
Assay type in all cases: in vivo
paddy rice = experiment: Experiment 7 flooded soil treatment: injury to paddy rice; conditions: evaluated 4 weeks after treatment
Text: (§1) Paddy soil (clay loam) was put into a pot so as to have a surface area of 1/15500 ares. Uniformly mixed seeds of several kinds of weeds, viz., nobie (barnyardgrass, Echinochloa spp.), broad-leaved weeds, hotarui (bulrush, Scirpus juncoides) and tamagayatsuri (small-flowered umbrellaplant, Cyperus difformis), were sown in the surface layer of the soil in each pot, and then paddy rice seedlings at the two- or three-leaved stage were transplanted into each pot to a depth of 2 cm, and water was fed into each pot so as to provide a 3 cm deep water layer on the soil surface. After 3 days, in other words at the initial stage of germination of nobie (barnyardgrass, Echinochloa spp.), a predetermined amount of a selected compound obtained in a manner analogous to Example 14 in the form of diluted aqueous solution was dropped into the water layer in each pot. After that, the pots were kept in a glass chamber to allow the paddy rice and the weeds to grow, and after the lapse of 4 weeks from the treatment with the selected compounds, the herbicidal effects and the degree of injury to the paddy rice were evaluated. The evaluation of the herbicidal effects was similarly conducted as that of Experiment 1.

[1] = tested on: nobie (barnyardgrass, Echinochloa spp.); experiment: Experiment 7 flooded soil treatment: nobie; set-up: key: 5: completely killed; 4: seriously injured; 3: considerably injured; 2: somewhat injured; 1: slightly injured; 0: not injured (normally grown); conditions: evaluated 4 weeks after treatment
Text: as §1

broad-leaved weeds = experiment: Experiment 7 flooded soil treatment: broad-leaved weeds; set-up: key: 5: completely killed; 4: seriously injured; 3: considerably injured; 2: somewhat injured; 1: slightly injured; 0: not injured (normally grown); conditions: evaluated 4 weeks after treatment
Text: as §1

[2] = tested on: hotarui (bulrush, Scirpus juncoides); experiment: Experiment 7 flooded soil treatment: hotarui; set-up: key: 5: completely killed; 4: seriously injured; 3: considerably injured; 2: somewhat injured; 1: slightly injured; 0: not injured (normally grown); conditions: evaluated 4 weeks after treatment
Text: as §1

[3] = tested on: tamagayatsuri (small-flowered umbrellaplant, Cyperus difformis); experiment: Experiment 7 flooded soil treatment: tamagayatsuri; set-up: key: 5: completely killed; 4: seriously injured; 3: considerably injured; 2: somewhat injured; 1: slightly injured; 0: not injured (normally grown); conditions: evaluated 4 weeks after treatment
Text: as §1

rice = experiment: Experiment 8 foliage treatment: rice; set-up: key: 5: completely killed; 4: seriously injured; 3: considerably injured; 2: somewhat injured; 1: slightly injured; 0: not injured (normally grown); conditions: foliage spray of wettable powder suspension, evaluated 4 weeks after treatment
Description: (§2) Upon seedling stage (two- or three-leaved stage) of rice, cockspur (Panicum crus-galli), garden radish, aobiyu (slender amaranth, Amaranthus viridis) and mehishiba (henry crabgrass, Digitaria cliaris) which were grown on a cultivated soil put in pots of 1/15500 ares, a selected compound obtained in a manner analogous to Example 14, in suspended wettable powder, was sprayed to each plant. After that, the pots were kept in a glass chamber to allow each plant to grow, and after the lapse of 4 weeks from the treatment with the selected compounds the herbicidal effects were evaluated. The evaluation of the herbicidal effects was similarly conducted as to that of Experiment 1.

[4] = tested on: cockspur (Panicum crus-galli); experiment: Experiment 8 foliage treatment: cockspur; set-up: key: 5: completely killed; 4: seriously injured; 3: considerably injured; 2: somewhat injured; 1: slightly injured; 0: not injured (normally grown); conditions: foliage spray of wettable powder suspension, evaluated 4 weeks after treatment
Description: as §2

garden radish = experiment: Experiment 8 foliage treatment: garden radish; set-up: key: 5: completely killed; 4: seriously injured; 3: considerably injured; 2: somewhat injured; 1: slightly injured; 0: not injured (normally grown); conditions: foliage spray of wettable powder suspension, evaluated 4 weeks after treatment
Description: as §2

[5] = tested on: aobiyu (slender amaranth, Amaranthus viridis); experiment: Experiment 8 foliage treatment: aobiyu; set-up: key: 5: completely killed; 4: seriously injured; 3: considerably injured; 2: somewhat injured; 1: slightly injured; 0: not injured (normally grown); conditions: foliage spray of wettable powder suspension, evaluated 4 weeks after treatment
Description: as §2

[6] = tested on: mehishiba (henry crabgrass, Digitaria cliaris); experiment: Experiment 8 foliage treatment: mehishiba; set-up: key: 5: completely killed; 4: seriously injured; 3: considerably injured; 2: somewhat injured; 1: slightly injured; 0: not injured (normally grown); conditions: foliage spray of wettable powder suspension, evaluated 4 weeks after treatment
Description: as §2

[7] = tested on: ichibi (velvetleaf, Abutilon theophrasti); experiment: Experiment 9 foliage treatment: ichibi; set-up: key: 5: completely killed; 4: seriously injured; 3: considerably injured; 2: somewhat injured; 1: slightly injured; 0: not injured (normally grown); conditions: foliage spray of wettable powder suspension, evaluated 4 weeks after treatment
Description: as §2, with “ichibi (velvetleaf, Abutilon theophrasti), onamomi (heartleaf cocklebur, Xanthium strumarium) (4L stage), noasagao (blue morningglory, Ipomoea indica)” for “rice, cockspur (Panicum crus-galli), garden radish, aobiyu (slender amaranth, Amaranthus viridis)”, “ooinutade (pale smartweed, Persicaria lapathifolia)” for “mehishiba (henry crabgrass, Digitaria cliaris)”, “1/8850” for “1/15500”, “as” for “as to”

[8] = tested on: onamomi (heartleaf cocklebur, Xanthium strumarium); experiment: Experiment 9 foliage treatment: onamomi; set-up: key: 5: completely killed; 4: seriously injured; 3: considerably injured; 2: somewhat injured; 1: slightly injured; 0: not injured (normally grown); conditions: foliage spray of wettable powder suspension, evaluated 4 weeks after treatment
Description: as §2, with “ichibi (velvetleaf, Abutilon theophrasti), onamomi (heartleaf cocklebur, Xanthium strumarium) (4L stage), noasagao (blue morningglory, Ipomoea indica)” for “rice, cockspur (Panicum crus-galli), garden radish, aobiyu (slender amaranth, Amaranthus viridis)”, “ooinutade (pale smartweed, Persicaria lapathifolia)” for “mehishiba (henry crabgrass, Digitaria cliaris)”, “1/8850” for “1/15500”, “as” for “as to”

[9] = tested on: noasagao (blue morningglory, Ipomoea indica); experiment: Experiment 9 foliage treatment: noasagao; set-up: key: 5: completely killed; 4: seriously injured; 3: considerably injured; 2: somewhat injured; 1: slightly injured; 0: not injured (normally grown); conditions: foliage spray of wettable powder suspension, evaluated 4 weeks after treatment
Description: as §2, with “ichibi (velvetleaf, Abutilon theophrasti), onamomi (heartleaf cocklebur, Xanthium strumarium) (4L stage), noasagao (blue morningglory, Ipomoea indica)” for “rice, cockspur (Panicum crus-galli), garden radish, aobiyu (slender amaranth, Amaranthus viridis)”, “ooinutade (pale smartweed, Persicaria lapathifolia)” for “mehishiba (henry crabgrass, Digitaria cliaris)”, “1/8850” for “1/15500”, “as” for “as to”

[10] = tested on: ooinutade (pale smartweed, Persicaria lapathifolia); experiment: Experiment 9 foliage treatment: ooinutade; set-up: key: 5: completely killed; 4: seriously injured; 3: considerably injured; 2: somewhat injured; 1: slightly injured; 0: not injured (normally grown); conditions: foliage spray of wettable powder suspension, evaluated 4 weeks after treatment
Description: as §2, with “ichibi (velvetleaf, Abutilon theophrasti), onamomi (heartleaf cocklebur, Xanthium strumarium) (4L stage), noasagao (blue morningglory, Ipomoea indica)” for “rice, cockspur (Panicum crus-galli), garden radish, aobiyu (slender amaranth, Amaranthus viridis)”, “ooinutade (pale smartweed, Persicaria lapathifolia)” for “mehishiba (henry crabgrass, Digitaria cliaris)”, “1/8850” for “1/15500”, “as” for “as to”

C#CC(C)Oc1cc(N(C(=O)C2=C(C(=O)OC)CCCC2)C(=O)c2ccsc2)c(F)cc1Cl (stereo not shown) [Compound No. 100]
Injury of Paddy (paddy rice; 6.25 g/10a): 0.5 | Injury of Paddy (paddy rice; 12.5 g/10a): 0.5 | Herbicidal Effect nobie ([1]; 6.25 g/10a): 5 | Herbicidal Effect nobie ([1]; 12.5 g/10a): 5 | Herbicidal Effect broad-leaved weed (broad-leaved weeds; 6.25 g/10a): 5 | Herbicidal Effect broad-leaved weed (broad-leaved weeds; 12.5 g/10a): 5 | Herbicidal Effect hotarui ([2]; 6.25 g/10a): 5 | Herbicidal Effect hotarui ([2]; 12.5 g/10a): 5 | Herbicidal Effect tamagayatsuri ([3]; 6.25 g/10a): 5 | Herbicidal Effect tamagayatsuri ([3]; 12.5 g/10a): 5 | Herbicidal Effect rice (rice; 40 g/10a): 1 | Herbicidal Effect rice (rice; 80 g/10a): 1 | Herbicidal Effect cockspur ([4]; 40 g/10a): 1 | Herbicidal Effect cockspur ([4]; 80 g/10a): 1 | Herbicidal Effect garden radish (garden radish; 40 g/10a): 5 | Herbicidal Effect garden radish (garden radish; 80 g/10a): 5 | Herbicidal Effect aobiyu ([5]; 40 g/10a): 5 | Herbicidal Effect aobiyu ([5]; 80 g/10a): 5 | Herbicidal Effect mehishiba ([6]; 40 g/10a): 1 | Herbicidal Effect mehishiba ([6]; 80 g/10a): 1 | Herbicidal Effet ichibi ([7]; 4 g/10a): 5 | Herbicidal Effet ichibi ([7]; 8 g/10a): 5 | Herbicidal Effet onamomi ([8]; 4 g/10a): 5 | Herbicidal Effet onamomi ([8]; 8 g/10a): 5 | Herbicidal Effet noasagao ([9]; 4 g/10a): 5 | Herbicidal Effet noasagao ([9]; 8 g/10a): 5 | Herbicidal Effet ooinutade ([10]; 4 g/10a): 5 | Herbicidal Effet ooinutade ([10]; 8 g/10a): 5
